The results in this text go back to US20250090699A1, “FAP TARGETING CYCLIC PEPTIDES AND CONJUGATES THEREOF” (Novartis AG, priority 2023, published 2025).

A word on the Kd: it is the equilibrium constant for the complex coming apart. One may read the IC50 as the concentration that gives 50% inhibition.

Test [1] concerns the target T1, human FAP (Homo sapiens, UniProt Q12884).
T1 construct: the biotinylated His, Avi tag, human FAP (26-760, FAP-H82Q6); His; Avi tag (biotinylated); purchased AcroBiosystems FAP-H82Q6
T1 sequence (Q12884 26-760): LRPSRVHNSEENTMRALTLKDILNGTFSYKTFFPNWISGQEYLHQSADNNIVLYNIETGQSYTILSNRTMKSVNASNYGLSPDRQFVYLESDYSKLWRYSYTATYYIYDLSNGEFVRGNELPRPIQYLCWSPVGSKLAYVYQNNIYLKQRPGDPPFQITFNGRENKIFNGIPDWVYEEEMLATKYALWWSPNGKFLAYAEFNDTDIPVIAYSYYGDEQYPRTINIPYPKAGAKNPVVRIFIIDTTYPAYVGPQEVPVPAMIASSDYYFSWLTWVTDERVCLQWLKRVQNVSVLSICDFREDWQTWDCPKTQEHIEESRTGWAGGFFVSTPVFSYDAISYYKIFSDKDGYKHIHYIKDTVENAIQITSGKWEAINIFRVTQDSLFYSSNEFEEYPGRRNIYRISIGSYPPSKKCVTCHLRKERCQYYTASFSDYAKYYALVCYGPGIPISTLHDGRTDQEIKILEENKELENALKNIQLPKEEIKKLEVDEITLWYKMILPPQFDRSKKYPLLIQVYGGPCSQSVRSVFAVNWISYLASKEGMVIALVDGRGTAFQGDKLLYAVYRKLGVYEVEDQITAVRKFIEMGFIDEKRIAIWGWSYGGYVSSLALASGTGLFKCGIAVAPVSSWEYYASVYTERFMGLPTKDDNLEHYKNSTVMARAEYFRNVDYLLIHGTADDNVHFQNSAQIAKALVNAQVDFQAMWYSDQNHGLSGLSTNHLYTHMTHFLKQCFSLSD
The test can be described thus: Surface plasmon resonance (SPR) for peptide affinity, human FAP. The format is binding. Conditions: read-out: h. FAP, SPR, KD. The procedure: Peptide affinities (KD) were determined by SPR using a Biacore™ 8K device (Cytiva) towards the following proteins: biotinylated His, Avi tag, human FAP (26-760, FAP-H82Q6), biotinylated His, Avi tag, mouse FAP (26-761, FAP-M82Q5), His tag, human DPP4 (34-766, DP4-H82E3), all purchased from AcroBiosystems and His tag, mouse DPP4 (29-760, 954-SE) from R&D Systems. The FAP proteins and their homologous were diluted to a concentration of 2 μg/mL into acetate buffer pH 5.5, then immobilized onto a CM5 sensorchip (Cytiva, BR-1005-30) to reach a response around 2000 R U. The running buffer HBS-EP+pH 7.6 (20× from Teknova CAT. No: H8022) contained 10 mM HEPES pH 7.6, 150 mM NaCl, 3 mM EDTA, 0.05% Tween20 and 2% DMSO. Experiments were carried out at 25° C. using a flow rate of 30 μL/min. Compounds were tested in single cycle kinetic mode at 8 different concentrations. Curve fitting was performed using the Biacore™ 8K evaluation software. The sensorgrams were fitted by applying a 1:1 binding model to calculate kinetic rate constants and equilibrium dissociation constants (KD).
For this assay, the setup had the same conditions (flow rate, running buffer, peptide dilution) as described above for the CM5 method. The oligo CAP reagent obtained in the CAPture Kit (Ref. 28920234) was 1/5 diluted into running buffer and used with a contact time of 300 s at a flow rate of 2 μL/min. The human and mouse FAP constructs described above were used (from AcroBiosystems or produced in house). The FAP proteins were diluted to a concentration of 2 μg/mL into acetate pH 5.5, 0.05% Tween20 and used with a contact time of 600 s at a flow rate of 10 μL/min. The peptides were tested with an association time of 280 s followed by a dissociation time of 3000 s at a flow rate of 30 μL/min. The regeneration was done using the regeneration solution (8 M guanidine-HCl, 1 M NaOH) as obtained with a contact time of 270 s at a flow rate of 10 μL/min. […] The compounds marked with an asterisk were tested against human and mouse DDP4.
Background: SPR reads the build-up and loss of mass on a sensor chip optically.

The target in test [2] is T2, mouse FAP (Mus musculus, UniProt P97321).
T2 construct: biotinylated His, Avi tag, mouse FAP (26-761, FAP-M82Q5); His; Avi tag (biotinylated); purchased AcroBiosystems FAP-M82Q5
T2 sequence (P97321 26-761): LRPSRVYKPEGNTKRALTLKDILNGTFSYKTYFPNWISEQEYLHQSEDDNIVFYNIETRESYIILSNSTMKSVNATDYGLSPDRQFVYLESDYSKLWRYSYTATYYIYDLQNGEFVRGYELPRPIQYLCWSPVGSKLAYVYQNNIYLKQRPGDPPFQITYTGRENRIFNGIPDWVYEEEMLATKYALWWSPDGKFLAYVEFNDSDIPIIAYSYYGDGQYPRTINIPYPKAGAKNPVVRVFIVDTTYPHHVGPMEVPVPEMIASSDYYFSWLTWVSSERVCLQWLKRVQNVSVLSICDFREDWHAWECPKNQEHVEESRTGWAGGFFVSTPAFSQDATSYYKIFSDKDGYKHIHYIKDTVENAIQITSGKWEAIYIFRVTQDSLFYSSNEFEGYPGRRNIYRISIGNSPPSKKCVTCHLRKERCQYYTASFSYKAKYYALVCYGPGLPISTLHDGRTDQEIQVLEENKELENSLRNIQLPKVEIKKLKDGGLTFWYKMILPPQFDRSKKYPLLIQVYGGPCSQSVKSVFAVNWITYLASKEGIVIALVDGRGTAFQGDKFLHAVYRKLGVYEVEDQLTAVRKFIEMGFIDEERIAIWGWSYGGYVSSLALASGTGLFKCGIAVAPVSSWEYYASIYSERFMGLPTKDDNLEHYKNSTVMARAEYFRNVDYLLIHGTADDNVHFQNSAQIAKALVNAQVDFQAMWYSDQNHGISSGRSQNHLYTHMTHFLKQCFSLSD
The experiment in a line: Surface plasmon resonance (SPR) for peptide affinity, mouse FAP. The format is binding. An outline of the steps:
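KD values come from a 1:1 kinetic fit of single-cycle SPR data: 8 peptide concentrations, 25 °C, 30 μL/min, HEPES-buffered saline pH 7.6 with 2% DMSO. Targets were His/Avi-tagged human (26-760) or mouse (26-761) FAP, amine-coupled to CM5 or held on a CAPture chip.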

Test [3] deals with T1, human FAP. The test can be described thus: Enzymatic FAP competition assay (Z-Gly-Pro-AMC fluorescence), human FAP. Type of test: biochemical. Conditions: read-out: h. FAP, Enz., IC50. An outline of the steps: (§1)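 IC50 values come from curve fitting of duplicate % inhibition data on AMC fluorescence (ex 380, em 460 nm) after 4 h at 22-24° C with 50 μM Z-Gly-Pro-AMC. Beforehand, peptides up to 1 μM (14 levels) sat 24 h with 0.01 nM human (26-760) or mouse (26-761) tagged FAP in phosphate buffer pH 7.5, NaCl, Tween20, 1% DMSO.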

Test [4] addresses T2, mouse FAP. The experiment in a line: Enzymatic FAP competition assay (Z-Gly-Pro-AMC fluorescence), mouse FAP. The format is biochemical. The settings on record: read-out: m. FAP, Enz., IC50. An outline of the steps: as §1

Structures can show the parent of a compound that is named as a salt. Starred links: 1 amine or outer side, 2 acyl side, 3 side chain; linkers in the order of their positions; H or OH if unused. Non-standard residues stand in square brackets, D forms with d. Residues, ends and D or L forms follow the SMILES beside them. Groups on a side chain read outwards from the residue. *: point of attachment. Phe(4-CH2NH2) = NCc1ccc(C[C@H](N)C(=O)O)cc1; Piperazinyl(4-CH2COOH) = O=C(O)CN1CCN(*)CC1; AEF = NCCOc1ccc(C[C@H](N)C(=O)O)cc1; Nicotinoyl(6-F) = O=C(c1ccc(F)nc1)*; NMeF = CN[C@@H](Cc1ccccc1)C(=O)O; Aoc(2) = CCCCCC[C@H](N)C(=O)O; Ahp(2) = CCCCC[C@H](N)C(=O)O; hSer = N[C@@H](CCO)C(=O)O; AEEA = NCCOCCOCC(=O)O; CO = O=C([*:1])[*:2]; Propyl = CCC*

For `CCCCC[C@@H]1NC(=O)[C@H](Cc2ccc(OCCN)cc2)NC(=O)[C@H](Cc2ccccc2)N(C)C(=O)CNC(=O)[C@@H]2CCCN2C(=O)[C@H]2CCCN2C(=O)[C@H](CC(=O)O)NC(=O)[C@H](Cc2ccc(O)cc2)NC(=O)CNC(=O)[C@H](Cc2c[nH]c3ccccc23)NC1=O` [Example A32, Pro-Gly-NMePhe-F(4OEtNH2)-Ahp-Trp-Gly-Tyr-Asp-D-Pro] (cyclo(G[NMeF][AEF][Ahp(2)]WGYD[dP]P)), the results for the Kd on human FAP [1] and at mouse FAP [2] were 0.27 nM and 0.55 nM, respectively. Besides, the IC50 was found to be 0.239 nM at human FAP [3] and 1.2 nM at mouse FAP [4].

In the case of `CCCCCC[C@@H]1NC(=O)[C@H](Cc2ccc(CNC(=O)COCCOCCN)cc2)NC(=O)[C@H](Cc2ccccc2)N(C)C(=O)CNC(=O)CNC(=O)[C@H]2CCCN2C(=O)[C@H](CC(=O)O)NC(=O)[C@H](CCCCNC(=O)N2CCN(CC(=O)O)CC2)NC(=O)CNC(=O)[C@H](Cc2c[nH]c3ccccc23)NC1=O` [Example A1, 2-((9S,12S,15S,18S,24S,27S,32aR)-18-((1H-indol-3-yl)methyl)-12-(4-((2-(2-(2-aminoethoxy)ethoxy)acetamido)methyl)benzyl)-9-benzyl-24-(4-(4-(carboxymethyl)piperazine-1-carboxamido)butyl)-15-hexyl-8-methyl-1,4,7,10,13,16,19,22,25,28-decaoxodotriacontahydropyrrolo[1,2-a][1,4,7,10,13,16,19,22,25,28]decaazacyclotriacontin-27-yl)acetic acid TFA salt] (cyclo([Aoc(2)]WGK([CO-Piperazinyl(4-CH2COOH)])D[dP]GG[NMeF][Phe(4-CH2NH2)](AEEA))), the Kd at human FAP [1] is less than 0.007 nM; at mouse FAP [2] it was less than 0.018 nM. Besides, the IC50 was found to be 0.009 nM on human FAP [3] and 0.028 nM at mouse FAP [4].

On to `CCCCC[C@@H]1NC(=O)[C@H](Cc2ccc(O)cc2)NC(=O)[C@H](Cc2ccccc2)N(C)C(=O)CNC(=O)CNC(=O)[C@H]2CCCN2C(=O)[C@H](CC(=O)O)NC(=O)[C@H](Cc2ccc(OC)cc2)NC(=O)CNC(=O)[C@H](Cc2c[nH]c3ccccc23)NC1=O` [Example A13, Gly-Gly-NMePhe-Tyr-Ahp-Trp-Gly-F(4OMe)-Asp-D-Pro] (cyclo([Ahp(2)]WGY(Me)D[dP]GG[NMeF]Y)), for which the Kd at human FAP [1] is less than 0.005 nM; on mouse FAP [2], 0.011 nM. The half-inhibitory concentration (IC50) stood at 0.005 nM at human FAP [3] and 0.011 nM at mouse FAP [4].

With `CCCOCC[C@@H]1NC(=O)[C@H](Cc2ccc(CNC(=O)COCCOCCNC(=O)c3ccc(F)nc3)cc2)NC(=O)[C@H](Cc2ccccc2)N(C)C(=O)CNC(=O)CNC(=O)[C@H]2CCCN2C(=O)[C@H](CC(=O)O)NC(=O)[C@H](CCCCNC(=O)N2CCN(CC(=O)O)CC2)NC(=O)CNC(=O)[C@H](Cc2c[nH]c3ccccc23)NC1=O` [Example C56, Gly-Gly-NMePhe-F(4amPEG2NHCOPy3(4F))-hS(Pr)-Trp-Gly-K(Copipzaa)-Asp-D-Pro] (cyclo(D[dP]GG[NMeF][Phe(4-CH2NH2)]([AEEA-Nicotinoyl(6-F)])[hSer](Propyl)WGK([CO-Piperazinyl(4-CH2COOH)]))), the figures for the Kd on human FAP [1] and on mouse FAP [2] were less than 0.007 nM and less than 0.023 nM, respectively. For the same compound, the values for the IC50 at human FAP [3] and on mouse FAP [4] were 0.009 nM and 0.037 nM, respectively.

For the compound `CCCOCC[C@@H]1NC(=O)[C@H](Cc2ccc(CNC(=O)COCCOCCN)cc2)NC(=O)[C@H](Cc2ccccc2)N(C)C(=O)CNC(=O)CNC(=O)[C@H]2CCCN2C(=O)[C@H](CC(=O)O)NC(=O)[C@H](CCCCNC(=O)N2CCN(CC(=O)O)CC2)NC(=O)CNC(=O)[C@H](Cc2c[nH]c3ccccc23)NC1=O` [Example A2, 2-((9S,12S,15S,18S,24S,27S,32aR)-18-((1H-indol-3-yl)methyl)-12-(4-((2-(2-(2-aminoethoxy)ethoxy)acetamido)methyl)benzyl)-9-benzyl-24-(4-(4-(carboxymethyl)piperazine-1-carboxamido)butyl)-8-methyl-1,4,7,10,13,16,19,22,25,28-decaoxo-15-(2-propoxyethyl)dotriacontahydropyrrolo[1,2-a][1,4,7,10,13,16,19,22,25,28]decaazacyclotriacontin-27-yl)acetic acid TFA salt] (cyclo(D[dP]GG[NMeF][Phe(4-CH2NH2)](AEEA)[hSer](Propyl)WGK([CO-Piperazinyl(4-CH2COOH)]))), the values for the Kd at human FAP [1] and at mouse FAP [2] were less than 0.011 nM and less than 0.023 nM, respectively. The IC50 is 0.012 nM at human FAP [3] and 0.047 nM on mouse FAP [4].
